Several values for one entry are separate records, joined by “and”; a condition that tells them apart may be missing. Equal entries are not always repeated. Marks after values point to notes of the source that are not given here.
Assays:
Assay in all cases: Whole plant dose response to metsulfuron
Format in all cases: in vivo
sunflower line RW-B = conditions: line RW-B (W574L), 14 DAT; for Dry weight (as a % of the untreated plants): above ground biomass; for Phytotoxicity Index: scale 0-9
Experimental: (§1) Seeds were sown in Petri dishes and, after germination, plantlets were transplanted to pots of 10 cm of diameter in a potting media consisting of equal parts of vermiculite, soil and sand. Plants were grown in a greenhouse under natural light conditions supplemented with 400 W sodium halide lamps to provide a 16 hr daylight. Day/night temperatures were 25 and 20° C., respectively. […] Experiment was arranged as a randomized block design with a full factorial (sunflower line x treatment) arrangement of treatments and 10 replications.
(§2) On the day of herbicide application ten plants of each genotype were cut at the cotyledonal node and dried at 60° C. for 48 hrs for zero-time dried weight determination.
(§3) […] Above ground biomass data from each line were converted to biomass accumulation after application by subtracting the appropriate average zero-time biomass from each sample. Dry biomass data were converted to percentages of the untreated control plants within each line to allow direct comparisons between groups. […] Plants without any symptoms were recorded as “0”, increasing levels of stunting and chlorosis with respect to the untreated control plants were recorded as “1” to “4”, increasing levels of leaf abnormalities and leaf necrosis were recorded from “5” to “8”, and dead plants with total necrosis of the apex were recorded as “9”.

sunflower line B770imi = conditions: line B770IMI (A205V), 14 DAT; for Dry weight (as a % of the untreated plants): above ground biomass; for Phytotoxicity Index: scale 0-9
Experimental: as §1, §2, §3

sunflower line SuBL = conditions: line SuBL (P197L), 14 DAT; for Dry weight (as a % of the untreated plants): above ground biomass; for Phytotoxicity Index: scale 0-9
Experimental: as §1, §2, §3

sunflower line B770 = conditions: 14 DAT; for Dry weight (as a % of the untreated plants): above ground biomass, line Suscp; for Phytotoxicity Index: line B770 (WT-Susceptible), scale 0-9

## COc1nc(C)nc(NC(=O)NS(=O)(=O)c2ccccc2C(=O)O)n1 [metsulfuron]
Sunflower line RW-B; metsulfuron 2x = 10 g ai/ha
  Dry weight (as a % of the untreated plants): 73.9^a %
  Phytotoxicity Index: 1.1^d
Sunflower line RW-B; metsulfuron 3x = 15 g ai/ha
  Dry weight (as a % of the untreated plants): 60.7^a %
  Phytotoxicity Index: 2.8^c
Sunflower line RW-B; metsulfuron 4x = 20 g ai/ha
  Dry weight (as a % of the untreated plants): 38.1^a %
Sunflower line RW-B; metsulfuron 0.5x = 2.5 g ai/ha
  Phytotoxicity Index: 0^c
Sunflower line RW-B; metsulfuron 1x = 5 g ai/ha
  Phytotoxicity Index: 0.6^d
Sunflower line B770imi; metsulfuron 0.5x = 2.5 g ai/ha
  Dry weight (as a % of the untreated plants): 42^c %
  Phytotoxicity Index: 3.3^b
Sunflower line B770imi; metsulfuron 1x = 5 g ai/ha
  Dry weight (as a % of the untreated plants): 30.1^c %
  Phytotoxicity Index: 5.2^b
Sunflower line B770imi; metsulfuron 2x = 10 g ai/ha
  Dry weight (as a % of the untreated plants): 30.4^c %
Sunflower line B770imi; metsulfuron 3x = 15 g ai/ha
  Dry weight (as a % of the untreated plants): 30^c %
  Phytotoxicity Index: 9^a
Sunflower line B770imi; metsulfuron 4x = 20 g ai/ha
  Dry weight (as a % of the untreated plants): 30.2^b %
  Phytotoxicity Index: 9^a
Sunflower line SuBL; metsulfuron 0.5x = 2.5 g ai/ha
  Dry weight (as a % of the untreated plants): 83.3% and 83.3^b %
Sunflower line SuBL; metsulfuron 1x = 5 g ai/ha
  Dry weight (as a % of the untreated plants): 72.4^b %
Sunflower line SuBL; metsulfuron 2x = 10 g ai/ha
  Dry weight (as a % of the untreated plants): 52.2^b %
  Phytotoxicity Index: 4.3^c
Sunflower line SuBL; metsulfuron 3x = 15 g ai/ha
  Dry weight (as a % of the untreated plants): 35.7^b %
  Phytotoxicity Index: 7.2^b
Sunflower line SuBL; metsulfuron 4x = 20 g ai/ha
  Dry weight (as a % of the untreated plants): 30.3% and 30.3^b %
Sunflower line B770; metsulfuron 0.5x = 2.5 g ai/ha
  Dry weight (as a % of the untreated plants): 23.7^d %
  Phytotoxicity Index: 9^a
Sunflower line B770; metsulfuron 1x = 5 g ai/ha
  Dry weight (as a % of the untreated plants): 20^d %
  Phytotoxicity Index: 9^a
Sunflower line B770; metsulfuron 2x = 10 g ai/ha
  Dry weight (as a % of the untreated plants): 19.4^d %
  Phytotoxicity Index: 9^a
Sunflower line B770; metsulfuron 3x = 15 g ai/ha
  Dry weight (as a % of the untreated plants): 19.2^d %
  Phytotoxicity Index: 9^a
Sunflower line B770; metsulfuron 4x = 20 g ai/ha
  Dry weight (as a % of the untreated plants): 19.4^c %
  Phytotoxicity Index: 9^a

Reference: patent US8952222B2, “Herbicide resistant sunflower plants derived from RW-B cultivar” (Anglo Netherlands Grain B.V., priority 2008, dated 2015)
